Molecular target: T1, EGFR TMLRCS (T790M/L858R/C797S), BaF3-TMLRCS cell line (Homo sapiens, UniProt P00533, C797S/L858R/T790M)
T1 construct: host or cells: BaF3 (BaF3-TMLRCS, puromycin selection)
Assay: HTRF Phospho EGFR TMLRCS assay (cellular)
Format: cell-based
Conditions: BaF3-TMLRCS cells, 4 hours incubation, Phospho-EGFR HTRF readout
Method: HTRF Phospho EGFR TMLRCS Assay (Cellular)
BaF3-TMLRCS cell line were obtained from Crownbio (San Diego, Calif., USA). Cells were maintained at 37° C., 5% CO2 in RPMI ATCC (Gibco 31870)+2 mM Glutamine+0.5 μg/ml Puromycin supplemented with 10% fetal bovine serum (FBS) (Gibco).
Cells are transferred as above to Greiner Bio-One, Nr. 784-08 micro-titerplate at 20000 cells/well in 12.5 μl of growth medium/well after the plates had been pre-filled with 12.5 nl of DMSO solutions of the to be tested compounds (in dose response) or DMSO only. After spinning the plates at 300×g for 30 seconds the cells were incubated for 4 hours at 37 C, 5% CO2, 95% humidity. The cells were lysed by adding to the compound mix 4 μl/well of the supplemented lysis buffer (Cis-bio, Phospho-EGFR HTRF kit, 64EG1PEH), followed by incubation for 30 min at room temperature with shaking (400 rpm). The plates were then frozen and stored overnight at −80 C. On the next day and after thawing the plates, 4 μl of a mixture of anti-Phospho-EGFR Cryptate and of anti-Phospho-EGFR-d2 antibody solutions prepared in the supplied detection buffer was added to each well. The lidded plates were then incubated for 4 h at room temperature before reading the fluorescence emission at 616 and 665 nm using an Envision reader (Perkin Elmer). Data was analyzed in similar fashion as above using the normalized ratio of the 665 to 616 signals multiplied by 10000.

T1 sequence (P00533 25-1210 T790M/C797S/L858R): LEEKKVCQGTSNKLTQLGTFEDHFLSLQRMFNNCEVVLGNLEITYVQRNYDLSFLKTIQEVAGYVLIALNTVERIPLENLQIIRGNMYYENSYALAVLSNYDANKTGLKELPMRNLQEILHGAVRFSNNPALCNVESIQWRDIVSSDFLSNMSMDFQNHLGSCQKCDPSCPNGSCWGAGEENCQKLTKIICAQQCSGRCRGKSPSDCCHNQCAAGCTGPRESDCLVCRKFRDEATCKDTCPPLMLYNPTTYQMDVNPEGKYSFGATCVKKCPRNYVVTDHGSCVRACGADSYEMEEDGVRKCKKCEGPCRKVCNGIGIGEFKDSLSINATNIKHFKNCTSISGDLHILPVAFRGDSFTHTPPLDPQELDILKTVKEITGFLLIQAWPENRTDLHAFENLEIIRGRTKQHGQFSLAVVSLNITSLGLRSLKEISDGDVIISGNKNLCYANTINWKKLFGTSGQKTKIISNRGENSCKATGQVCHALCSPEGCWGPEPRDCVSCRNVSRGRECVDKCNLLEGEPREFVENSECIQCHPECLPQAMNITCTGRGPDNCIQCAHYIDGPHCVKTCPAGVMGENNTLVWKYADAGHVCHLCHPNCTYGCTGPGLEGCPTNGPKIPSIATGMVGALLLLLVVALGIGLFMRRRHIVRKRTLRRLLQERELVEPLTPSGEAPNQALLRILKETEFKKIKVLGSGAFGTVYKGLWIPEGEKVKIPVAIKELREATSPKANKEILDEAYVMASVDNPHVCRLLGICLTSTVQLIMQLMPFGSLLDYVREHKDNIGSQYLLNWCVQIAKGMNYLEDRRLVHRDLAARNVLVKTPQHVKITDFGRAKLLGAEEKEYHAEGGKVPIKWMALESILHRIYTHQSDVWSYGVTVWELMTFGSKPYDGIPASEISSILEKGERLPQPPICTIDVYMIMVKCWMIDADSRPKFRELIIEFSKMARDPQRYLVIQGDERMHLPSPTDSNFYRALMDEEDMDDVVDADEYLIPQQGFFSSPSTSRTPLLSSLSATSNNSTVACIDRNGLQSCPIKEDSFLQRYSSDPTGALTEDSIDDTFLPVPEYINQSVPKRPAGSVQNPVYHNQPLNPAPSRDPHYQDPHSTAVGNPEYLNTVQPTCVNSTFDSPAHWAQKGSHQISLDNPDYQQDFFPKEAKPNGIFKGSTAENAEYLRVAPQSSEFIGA

IC50 [nM] | Compound
12 | CCN1CCC(c2ccc(-c3cc(F)c4c(c3)C(=O)N(C(C(=O)Nc3nccs3)c3cc(F)ccc3O)C4)cc2)CC1 (racemic) [Example 1, (2RS)-2-[6-[4-(1-Ethyl-4-piperidyl)phenyl]-4-fluoro-1-oxo-isoindolin-2-yl]-2-(5-fluoro-2-hydroxy-phenyl)-N-thiazol-2-yl-acetamide]
11 | CCN1CCC(c2ccc(-c3cc(F)c4c(c3Cl)C(=O)N(C(C(=O)Nc3nccs3)c3cc(F)ccc3O)C4)cc2)CC1 (racemic) [Example 2, (2RS)-2-[7-Chloro-6-[4-(1-ethyl-4-piperidyl)phenyl]-4-fluoro-1-oxo-isoindolin-2-yl]-2-(5-fluoro-2-hydroxy-phenyl)-N-thiazol-2-yl-acetamide]
9 | O=C(Nc1nccs1)C(c1cc(F)ccc1O)N1Cc2c(F)cc(-c3ccc(C4CCN(CCF)CC4)cc3)cc2C1=O (racemic) [Example 3, (2RS)-2-[4-Fluoro-6-[4-[1-(2-fluoroethyl)-4-piperidyl]phenyl]-1-oxo-isoindolin-2-yl]-2-(5-fluoro-2-hydroxy-phenyl)-N-thiazol-2-yl-acetamide]

— patent US20220315577A1, “NEW EGFR INHIBITORS” (Hoffmann-La Roche Inc., priority 2019, published 2022)
